This passage reports IC50 results from patent publication US20260007684A1, “AMIDE DERIVATIVES FOR INHIBITING NLRP3 AND USES THEREOF” (Ventus Therapeutics U.S., Inc., priority 2023, published 2026).

By IC50 is commonly meant the concentration that gives 50% inhibition.

The target of this test is human NLRP3 (Homo sapiens (Human), UniProt Q96P20). Description: Scintillation Proximity (SPA) NLRP3 Assay: displacement of 3H-MCC950. The test is classed as binding. The following applies: displacement of 3H-MCC950; read-out: SPA IC50. Background: In a scintillation proximity assay essentially only radioactivity close to the scintillant gives light.
Chain of human NLRP3 (Q96P20 whole entry): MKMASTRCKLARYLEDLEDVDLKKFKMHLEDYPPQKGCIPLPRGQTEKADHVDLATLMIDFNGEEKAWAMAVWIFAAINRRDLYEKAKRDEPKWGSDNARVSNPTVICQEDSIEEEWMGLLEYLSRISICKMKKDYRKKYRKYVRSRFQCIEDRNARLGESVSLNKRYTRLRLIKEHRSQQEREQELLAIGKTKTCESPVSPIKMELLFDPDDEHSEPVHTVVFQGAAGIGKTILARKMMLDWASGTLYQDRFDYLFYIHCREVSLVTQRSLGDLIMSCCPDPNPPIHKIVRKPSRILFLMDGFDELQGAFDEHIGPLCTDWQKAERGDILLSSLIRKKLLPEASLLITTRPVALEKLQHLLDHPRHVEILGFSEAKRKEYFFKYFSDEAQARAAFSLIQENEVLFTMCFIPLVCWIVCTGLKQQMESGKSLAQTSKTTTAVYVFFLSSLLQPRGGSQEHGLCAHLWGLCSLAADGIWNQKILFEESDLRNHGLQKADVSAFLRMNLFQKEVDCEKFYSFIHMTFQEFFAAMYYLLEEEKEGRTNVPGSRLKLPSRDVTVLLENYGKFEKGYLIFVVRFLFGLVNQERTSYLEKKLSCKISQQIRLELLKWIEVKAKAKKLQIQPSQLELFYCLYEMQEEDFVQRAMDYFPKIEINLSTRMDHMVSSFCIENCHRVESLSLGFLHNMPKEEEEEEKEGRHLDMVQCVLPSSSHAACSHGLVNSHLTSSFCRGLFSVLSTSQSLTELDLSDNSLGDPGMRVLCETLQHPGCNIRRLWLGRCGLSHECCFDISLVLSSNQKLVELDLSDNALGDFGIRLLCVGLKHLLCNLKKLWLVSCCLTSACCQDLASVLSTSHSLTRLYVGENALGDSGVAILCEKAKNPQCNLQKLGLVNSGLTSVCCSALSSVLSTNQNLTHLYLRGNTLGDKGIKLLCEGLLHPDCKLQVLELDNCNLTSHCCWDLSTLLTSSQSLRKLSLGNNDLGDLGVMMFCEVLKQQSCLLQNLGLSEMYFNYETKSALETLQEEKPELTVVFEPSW
As for `C[C@H]1CCN(c2nnn[nH]2)C[C@@H](NC(=O)C2(c3ccc(Cl)cc3O)CC2)C1` (single isomer, unassigned) [60D*], the half-maximal inhibitory concentration (IC50) is less than 1 µM.

For the compound `C[C@H]1CCN(c2nnn[nH]2)C[C@H](NC(=O)C2(c3ccc(C(F)(F)F)cc3)CC2)C1` (single isomer, unassigned) [61B*], the 50% inhibitory concentration (IC50) fell in the range of 1 to 10 µM.

Regarding `C[C@@H]1CCN(c2nnn[nH]2)C[C@@H](NC(=O)C2(c3ccc(C(F)(F)F)cc3)CC2)C1` (single isomer, unassigned) [61C*], the IC50 was in the range of 50 to 100 µM.

Regarding `C[C@H]1CCN(c2nnn[nH]2)C[C@@H](NC(=O)C2(c3ccc(C(F)(F)F)cc3)CC2)C1` (single isomer, unassigned) [61D*], the IC50 lay within 10 to 50 µM.

Consider `C[C@H]1CCN(c2nnn[nH]2)C[C@H](NC(=O)C2(c3ccc(OC(F)(F)F)cc3O)CC2)C1` (single isomer, unassigned) [62C*], for which the IC50 lay within 1 to 10 µM.

Regarding `C[C@H]1CCN(c2nnn[nH]2)C[C@@H](NC(=O)C2(c3ccc(OC(F)(F)F)cc3O)CC2)C1` (single isomer, unassigned) [62D*], the IC50 lay in the range of 1 to 10 µM.

As for `C[C@H]1CCN(c2nnn[nH]2)C[C@H](NC(=O)C2(c3ccc(C(F)(F)F)cc3O)CC2)C1` (single isomer, unassigned) [63C*], the IC50 was 10 to 50 µM.

For `C[C@H]1CCN(c2nnn[nH]2)C[C@@H](NC(=O)C2(c3ccc(C(F)(F)F)cc3O)CC2)C1` (single isomer, unassigned) [63D*], the IC50 is less than 1 µM.

Take `C[C@@H]1CCN(c2nnn[nH]2)C[C@@H](NC(=O)C2(c3ccc(OC(F)(F)F)cc3F)CC2)C1` (single isomer, unassigned) [64B*]: the IC50 lay in the range of 10 to 50 µM.

Regarding `C[C@H]1CCN(c2nnn[nH]2)C[C@H](NC(=O)C2(c3ccc(OC(F)(F)F)cc3F)CC2)C1` (single isomer, unassigned) [64C*], the IC50 fell in the range of 50 to 100 µM.

With `C[C@H]1CCN(c2nnn[nH]2)C[C@@H](NC(=O)C2(c3ccc(OC(F)(F)F)cc3F)CC2)C1` (single isomer, unassigned) [64D*], the concentration for half-maximal inhibition (IC50) is 1 to 10 µM.

Regarding `C[C@@H]1CCN(c2nnn[nH]2)C[C@@H](NC(=O)C2(c3ccc(Cl)c(F)c3)CC2)C1` (single isomer, unassigned) [65B*], the IC50 lay in the range of 10 to 50 µM.

Turning to `C[C@H]1CCN(c2nnn[nH]2)C[C@H](NC(=O)C2(c3ccc(Cl)c(F)c3)CC2)C1` (single isomer, unassigned) [65C*], the IC50 was 10 to 50 µM.

Regarding `C[C@@H]1CCN(c2nnn[nH]2)C[C@@H](NC(=O)C2(c3ccc(C(F)(F)F)c(F)c3)CC2)C1` (single isomer, unassigned) [66B*], the IC50 was in the range of 1 to 10 µM.

Consider `C[C@H]1CCN(c2nnn[nH]2)C[C@H](NC(=O)C2(c3ccc(C(F)(F)F)c(F)c3)CC2)C1` (single isomer, unassigned) [66C*], for which the half-maximal inhibitory concentration (IC50) was more than 100 µM.

For the compound `C[C@H]1CCN(c2nnn[nH]2)C[C@@H](NC(=O)C2(c3ccc(C(F)(F)F)c(F)c3)CC2)C1` (single isomer, unassigned) [66D*], the IC50 lay within 10 to 50 µM.

Take `Cc1ccc(C2(C(=O)N[C@H]3C[C@H](C)CCN(c4nnn[nH]4)C3)CC2)c(O)c1` (single isomer, unassigned) [67B*]: the 50% inhibitory concentration (IC50) is less than 1 µM.

Consider `Cc1ccc(C2(C(=O)N[C@@H]3C[C@@H](C)CCN(c4nnn[nH]4)C3)CC2)c(O)c1` (single isomer, unassigned) [67C*], for which the IC50 was 10 to 50 µM.

In the case of `Cc1ccc(C2(C(=O)N[C@H]3C[C@@H](C)CCN(c4nnn[nH]4)C3)CC2)c(O)c1` (single isomer, unassigned) [67D*], the IC50 was in the range of 1 to 10 µM.

Regarding `C[C@@H]1CCN(c2nnn[nH]2)C[C@@H](NC(=O)C2(c3ccc(C(F)(F)F)cc3F)CC2)C1` (single isomer, unassigned) [68B*], the IC50 was in the range of 1 to 10 µM.

As to `C[C@H]1CCN(c2nnn[nH]2)C[C@H](NC(=O)C2(c3ccc(C(F)(F)F)cc3F)CC2)C1` (single isomer, unassigned) [68C*], the concentration for half-maximal inhibition (IC50) was more than 100 µM.

As for `C[C@H]1CCN(c2nnn[nH]2)C[C@@H](NC(=O)C2(c3ccc(C(F)(F)F)cc3F)CC2)C1` (single isomer, unassigned) [68D*], the IC50 fell in the range of 1 to 10 µM.

With `C[C@@H]1CCN(c2nnn[nH]2)C[C@@H](NC(=O)C2(c3ccc(SC(F)(F)F)cc3)CC2)C1` (single isomer, unassigned) [69B*], the IC50 was 10 to 50 µM.

Take `C[C@H]1CCN(c2nnn[nH]2)C[C@H](NC(=O)C2(c3ccc(SC(F)(F)F)cc3)CC2)C1` (single isomer, unassigned) [69C*]: the 50% inhibitory concentration (IC50) was more than 100 µM.

Take `C[C@H]1CCN(c2nnn[nH]2)C[C@@H](NC(=O)C2(c3ccc(SC(F)(F)F)cc3)CC2)C1` (single isomer, unassigned) [69D*]: the IC50 lay in the range of 10 to 50 µM.

As for `C[C@H]1CCN(c2nnn[nH]2)C[C@H](NC(=O)C2(c3ccc(OC(F)F)cc3O)CC2)C1` (single isomer, unassigned) [70C*], the IC50 fell in the range of 10 to 50 µM.

Consider `Cc1ccc(C2(C(=O)N[C@H]3C[C@H](C)CCN(c4nnn[nH]4)C3)CC2)cc1` (single isomer, unassigned) [71B*], for which the IC50 lay within 50 to 100 µM.

`Cc1ccc(C2(C(=O)N[C@@H]3C[C@@H](C)CCN(c4nnn[nH]4)C3)CC2)cc1` (single isomer, unassigned) [71C*]: the half-inhibitory concentration (IC50) lay within 50 to 100 µM.

As to `Cc1ccc(C2(C(=O)N[C@H]3C[C@@H](C)CCN(c4nnn[nH]4)C3)CC2)cc1` (single isomer, unassigned) [71D*], the IC50 is 10 to 50 µM.

On to `C[C@@H]1CCN(c2nnn[nH]2)C[C@@H](NC(=O)C2(c3c(F)cc(Cl)cc3F)CC2)C1` (single isomer, unassigned) [72B*], for which the IC50 lay within 1 to 10 µM.

On to `C[C@H]1CCN(c2nnn[nH]2)C[C@H](NC(=O)C2(c3c(F)cc(Cl)cc3F)CC2)C1` (single isomer, unassigned) [72C*], for which the IC50 is more than 100 µM.

For the compound `C[C@H]1CCN(c2nnn[nH]2)C[C@@H](NC(=O)C2(c3c(F)cc(Cl)cc3F)CC2)C1` (single isomer, unassigned) [72D*], the IC50 was in the range of 10 to 50 µM.

Turning to `C[C@@H]1CCN(c2nnn[nH]2)C[C@@H](NC(=O)C2(c3ccc(OC(F)F)c(F)c3)CC2)C1` (single isomer, unassigned) [73B*], the 50% inhibitory concentration (IC50) fell in the range of 1 to 10 µM.

Consider `C[C@H]1CCN(c2nnn[nH]2)C[C@H](NC(=O)C2(c3ccc(OC(F)F)c(F)c3)CC2)C1` (single isomer, unassigned) [73C*], for which the IC50 was 10 to 50 µM.

On to `C[C@H]1CCN(c2nnn[nH]2)C[C@@H](NC(=O)C2(c3ccc(OC(F)F)c(F)c3)CC2)C1` (single isomer, unassigned) [73D*], for which the IC50 was in the range of 1 to 10 µM.

Consider `Cc1ccc(C2(C(=O)N[C@H]3C[C@H](C)CCN(c4nnn[nH]4)C3)CC2)c(O)c1F` (single isomer, unassigned) [74B*], for which the IC50 fell in the range of 1 to 10 µM.

Take `Cc1ccc(C2(C(=O)N[C@@H]3C[C@@H](C)CCN(c4nnn[nH]4)C3)CC2)c(O)c1F` (single isomer, unassigned) [74C*]: the IC50 lay within 10 to 50 µM.

As for `Cc1ccc(C2(C(=O)N[C@H]3C[C@@H](C)CCN(c4nnn[nH]4)C3)CC2)c(O)c1F` (single isomer, unassigned) [74D*], the half-maximal inhibitory concentration (IC50) lay within 1 to 10 µM.

On to `C[C@@H]1CC[C@@H](NC(=O)C2(c3ccc(Cl)cc3O)CC2)CN(c2nnn[nH]2)C1` (single isomer, unassigned) [90C*], for which the IC50 was in the range of 10 to 50 µM.

Consider `C[C@@H]1CC[C@H](NC(=O)C2(c3ccc(Cl)cc3O)CC2)CN(c2nnn[nH]2)C1` (single isomer, unassigned) [90D*], for which the IC50 was in the range of 1 to 10 µM.
